Laboratory results: patent publication US20260355217A1, “HPK1 INHIBITOR, PREPARATION METHOD THEREFOR, AND USE THEREOF” (Beijing Earthwise Technology Co., Ltd., priority 2022, published 2026)

Experiments:
[1] = biological target: T1, pSLP76 (Phospho-SLP-76 (Ser376)), Jurkat E6-1 cells (Homo sapiens, UniProt Q92918); experiment: Phospho-SLP-76 (Ser376) HTRF Assay in Jurkat E6-1 cells; format: cell-based; details: compound 4 hours, then anti-CD3 20 minutes
T1 construct: read-out phospho-SLP-76 (Ser376) HTRF
Procedure: Assay Example 3 Phospho-SLP-76 (Ser376) HTRF Assay
A compound was dissolved in DMSO to 10 mM, and then diluted three-fold with DMSO to 10 dosages in a 96-well plate. Then, 3 μL of the diluted compound sample was transferred to a 96-well plate with 97 μL of cell culture medium, and the plate was shaken for 5 minutes. According to the experimental design diagram, 7.5 μL of the diluted compound sample was transferred to a cell plate. Final concentrations of the compound in this assay were 10000.00, 3333.33, 1111.11, 370.37, 123.46, 41.15, 13.72, 4.57, 1.52 and 0.51 nM.
In this assay, the density of Jurkat E6-1 cells was maintained between 3*10^5 to 3*10^6 cells/mL. The cell culture was replaced with fresh culture medium every 2 to 3 days (depending on the cell density). 30 μL of Jurkat E6-1 (300,000 cells) was added to a 96-well plate and incubated in a 37 °C incubator for 1 hour. Then, according to the experimental design diagram, compounds (6×, 7.5 μL) were added to treat the cells for 4 hours, respectively. After 4 hours, purified anti-human anti-CD3 antibodies (6×, 7.5 μL) were added to treat the cells for 20 minutes. After 20 minutes, 15 μL of cell lysis buffer (4×) was added, and the cells were lysed at 25 °C with shaking (250 rpm) for 1 hour. Then, according to the experimental design diagram, 16 μL of cell lysate was transferred to a 384-well plate using a pipette. After the transfer, 4 μL of antibody detection mixture was added. After being placed at room temperature overnight, the plate was read by EnVision multi-function microplate reader to read the FRET signal (the ratio of HTRF 665/615 was calculated from the readings at 665 nm and 615 nm).
The ratio of the signal at 665 nm to the signal at 615 nm was converted to the percentage of inhibition. Inhibition %=(maximum value−sample value)/(maximum value−minimum value)×100. The minimum value refers to the signal value of a well without anti-CD3 antibody stimulation during the treatment of cells, and the maximum value refers to the signal value of a well with anti-CD3 antibody stimulation but without the compound during the treatment of cells. IC50 values were calculated by XLFit (version 5.3.1.3) in excel. Equation: Y=Bottom+(Top−Bottom)/(1+(IC50/X)^HillSlope).

[2] = system: human Pan T cells (IL-2 release); experiment: Human Pan T Cell IL-2 ELISA; format: cell-based; details: Homo sapiens, T-cell, 48 h, Anti-CD3/Anti-CD28, IL-2 ELISA
Procedure: Assay Example 4 Human Pan T Cell IL-2 ELISA
A compound was dissolved in DMSO to 10 mM, and then diluted three-fold with DMSO to 9 dosages in a 96-well plate. Then, 10 μL of the diluted compound sample was transferred to a 96-well plate with 90 μL of cell culture medium, and the plate was shaken for 5 minutes. Then, 5 μL of the diluted compound sample was transferred to a 96-well plate with 120 μL of cell culture medium, and the plate was shaken for 5 minutes. According to the experimental design diagram, 50 μL of the diluted compound sample was transferred to a cell plate. Final concentrations of the compound in this assay were 10000.00, 5000, 2500, 1250, 625, 312.5, 156.25, 78.125 and 39.063 nM.
The assay was conducted in a 96-well plate. On the first day of the assay, Anti-CD3 was added to the 96-well plate and incubated in a 4 °C refrigerator overnight. On the second day of the assay, human Pan T cells were recovered, centrifuged and counted. The cell density was adjusted to 1*10^6 cells/ml. Then, 100 μL of cells were added to the 96-well plate washed with PBS and added with Anti-CD3; according to the experimental design diagram, 50 μL of diluted Anti-CD28 and 50 μL of the diluted compound were added to each well, centrifuged, and the cell plate was placed and incubated in an incubator for 48 hours; after 48 hours, the plate was centrifuged and the supernatant was collected for IL-2 ELISA.
The signal value of light absorption was converted into a multiple. Multiple=sample value/the average value of control wells. The average value of control wells refers to the value measured in wells with DMSO added. EC50 values were calculated by XLFit (version 5.3.1.3) in Excel. Equation: Y=Bottom+(Top−Bottom)/(1+(EC50/X)^HillSlope).

HPK1 = HPK1 (Homo sapiens, UniProt Q92918); experiment: HPK1 HTRF Kinase Assay; format: biochemical; details: 1000 μM ATP, 50 nM HPK1, STK1 substrate, 120 minutes
Procedure: Assay Example 2 HPK1 HTRF Kinase Assay
The assay was performed in a 384-well plate (Greier, Cat #784075) with a total reaction system of 20 μL. 1×kinase buffer (5*enzyme buffer, 5 mM MgCl2, 0.1% BSA, 1 mM DTT), […] and 1000 µM ATP, and 10 μL of Detection Mix (0.25 nM STK antibody, 62.5 nM XL665) were included in the reaction mixture. The reaction was initiated by adding 50 nM HPK1. After 120 minutes of reaction, the assay was terminated by adding 10 μL of Detection Mix. After being incubated at room temperature for 60 minutes, the assay plate was read by EnVision multi-function microplate reader to read the FRET signal (the ratio of HTRF 665/615 was calculated from the readings at 665 nm and 615 nm).
The ratio of the signal at 665 nm to the signal at 615 nm was converted to the percentage of inhibition. Inhibition %=(maximum value−sample value)/(maximum value−minimum value)×100. The minimum value refers to the value measured in a well without enzyme but with DMSO and substrate, and the maximum value refers to the value measured in a well with DMSO, enzyme and substrate. IC50 values were calculated by XLFit (version 5.3.1.3) in Excel. Equation: Y=Bottom+(Top−Bottom)/(1+(IC50/X)^HillSlope).

Chain of HPK1 (Q92918 whole entry): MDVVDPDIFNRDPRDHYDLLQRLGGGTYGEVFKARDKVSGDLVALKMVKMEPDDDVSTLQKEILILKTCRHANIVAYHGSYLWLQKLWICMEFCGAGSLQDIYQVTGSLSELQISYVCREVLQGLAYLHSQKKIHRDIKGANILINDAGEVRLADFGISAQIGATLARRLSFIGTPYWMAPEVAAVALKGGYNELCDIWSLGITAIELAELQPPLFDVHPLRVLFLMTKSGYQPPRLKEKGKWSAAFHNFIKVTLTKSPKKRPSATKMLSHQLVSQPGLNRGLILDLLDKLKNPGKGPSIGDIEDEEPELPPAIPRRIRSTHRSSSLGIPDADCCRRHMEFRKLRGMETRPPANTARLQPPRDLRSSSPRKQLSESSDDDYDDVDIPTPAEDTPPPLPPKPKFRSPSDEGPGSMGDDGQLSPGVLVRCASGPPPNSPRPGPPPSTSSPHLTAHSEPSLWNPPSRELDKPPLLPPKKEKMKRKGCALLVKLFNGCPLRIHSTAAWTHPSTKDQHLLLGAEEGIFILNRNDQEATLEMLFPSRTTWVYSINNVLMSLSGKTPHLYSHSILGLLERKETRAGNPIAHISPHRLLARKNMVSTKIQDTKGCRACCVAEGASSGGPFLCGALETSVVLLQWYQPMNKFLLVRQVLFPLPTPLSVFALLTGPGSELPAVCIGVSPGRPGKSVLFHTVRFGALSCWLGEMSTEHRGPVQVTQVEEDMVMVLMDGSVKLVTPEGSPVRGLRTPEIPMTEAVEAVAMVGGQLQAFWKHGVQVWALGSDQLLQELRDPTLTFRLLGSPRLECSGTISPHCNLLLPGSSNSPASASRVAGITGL
T1 sequence (Q92918 whole entry): as above

Compound | IC50 [1] | EC50 [2] | IC50 (HPK1)
COc1cccn2c(-c3cc4c(c5c3CCNC5=O)Nc3ccc(N5CCOCC5)cc3C4(C)C)cnc12 [Example 13] | 0.0244 µM | 0.00312 µM | 0.00932 µM
CC1(C)c2cc(N3CCOCC3)ccc2Nc2c1cc(-c1cncc(N3CCOCC3)c1)c1c2C(=O)NC1 [Example 85] |  | 0.0694 µM | 0.0362 µM
